Measured values published in patent US20260365654A1, “PRMT5 INHIBITOR AND USE THEREOF” (SHANGHAI APEIRON THERAPEUTICS COMPANY LIMITED, priority 2022, published 2026).

How the values were obtained:
[1] = test system: HCT-116 MTAP(−/−)deleted cells; assay: Inhibitory activity of compounds on the proliferation of HCT-116 MTAP(−/−)deleted cells; type: cell-based; conditions: Cell-Titer Glo, 8 d, 0-10,000 nM, 3-fold dilution, 10 points, 0.1% DMSO
From the text: Test case 1: Inhibitory activity of compounds on the proliferation of HCT-116 MTAP(−/−)deleted cells Materials and cells: HCT-116 MTAP(−/−)deleted cells were purchased from Botron Healthcare (China); RPMI-1640 medium, fetal bovine serum and penicillin-streptomycin were purchased from Thermo Fisher (United States); 384-well plates were purchased from PerkinElmer (United States); Cell-Titer Glo kit was purchased from Promega (United States).
Cell culture: HCT116 MTAP(−/−)deleted cells were cultured with RPMI 1640 medium containing 10% fetal bovine serum +1% penicillin-streptomycin at 37 °C in 5% CO2. Only cells in the logarithmic growth phase could be used for the test.
Test of inhibitory activity on cell proliferation: The Cell-Titer Glo kit was used to test the proliferation inhibitory activity of the compounds on HCT-116 MTAP(−/−)deleted cells. The cell concentration was adjusted, It was inoculated at 40 μL per well into a 384-well plate and incubated overnight at 37 °C in 5% CO2. 40 μL of the compound was added to each well to reach a final concentration of 0-10,000 nM (starting concentration 10,000 nM, 3-fold dilution, 10 points), and the cell plate with 0.1% DMSO content was incubated at 37 °C and 5% CO2 for 8 d. 40 μL of Cell-Titer Glo reagent was added to test cell viability.

[2] = test system: HCT-116 wild-type cells; assay: Proliferation inhibitory activity of compound on HCT-116 Wild Type cells; type: cell-based; conditions: Cell-Titer Glo, 8 d, 0-10,000 nM, 2-fold dilution, 10 points, 0.1% DMSO
Protocol: Test case 2: Test on proliferation inhibitory activity of compound on HCT-116 Wild Type cells Materials and cells: HCT-116 wild-type cells were purchased from Botron Healthcare (China); RPMI-1640 medium, fetal bovine serum and penicillin-streptomycin were purchased from Thermo Fisher (United States); 384-well plates were purchased from PerkinElmer (United States); Cell-Titer Glo kit was purchased from Promega (United States).
Cell culture: HCT-116 wild-type cells were cultured with a RPMI-1640 medium containing […]+1% penicillin-streptomycin at 37 °C in 5% CO2. Only cells in the logarithmic growth phase could be used for the test.
Test of cell proliferation activity: Cell-Titer Glo kit was used to test the proliferation inhibitory activity of the compound on HCT-116 wild-type cells. The cell concentration was adjusted, 40 μL per well was inoculated into a 384-well plate and incubated overnight at 37 °C in […]. 40 nL of the compound was added to each well to reach a final concentration of 0-10,000 nM (starting concentration 10,000 nM, 2-fold dilution, 10 points), and the cell plate with 0.1% DMSO content was incubated at 37 °C and […] for 8 d. 40 μL of Cell-Titer Glo reagent was added to test cell viability.

Row | Compound | IC50 ([1]; Homo sapiens, 192 h) [µM] | IC50 ([2]; Homo sapiens, 192 h) [µM] | IC50 [1] [µM] | IC50 [2] [µM]
1 | Nc1nc2ccc(C(=O)N3CCCC[C@@H]3c3ccc(F)cc3)cc2n2cccc12 [Example 1, (R)-(4-aminopyrrolo[1,2-a]quinoxalin-8-yl)(2-(4-fluorophenyl)piperidin-1-yl)methanone] | 3.89 | 10.8 |  | 
2 | Nc1nc2cc(F)c(C(=O)N3CCO[C@@H](c4ccc(C(F)(F)F)cc4)C3)cc2n2cncc12 [Example 15, (S)-(4-amino-7-fluoroimidazo[1,5-a]quinoxalin-8-yl)(2-(4-(trifluoromethyl)phenyl)morpholinyl)methanone] | 0.933 | > 10 |  | 
3 | Cn1ncc2cc(C3CCCCN3C(=O)c3ccc4nc(N)c5cncn5c4c3)cnc21 (centres unmarked) [Example 23, (4-aminoimidazo[1,5-a]quinoxalin-8-yl) 2-(1-methylpyrazolo[3,4-b]pyridin-5-yl)piperidin-1-methanone] |  |  | 0.741 | > 10
4 | Nc1nc2cc(F)c(C(=O)N3CCC[C@H]3c3ccc(C(F)(F)F)cc3)cc2n2cncc12 [Example 17, (S)-(4-amino-7-fluorimidazo[1,5-a]quinoxalin-8-yl)(2-(4-(trifluoromethyl)phenyl)pyrrolidin-1-yl)methanone] | > 3 | > 10 |  | 
5 | Nc1nc2ccc(C(=O)N3CCCCC3c3ccc(C(F)(F)F)cn3)cc2n2cncc12 (centres unmarked) [Example 21] |  |  | 0.0804 | > 10
6 | Nc1nc2ccc(C(=O)N3CCCCC3c3cnc4cccnc4c3)cc2n2cncc12 (centres unmarked) [Example 18] | 1.4 | > 10 |  | 
7 | Nc1nc2cc(F)c(C(=O)N3CCC[C@@H](c4ccc(C(F)(F)F)cc4)C3)cc2n2cncc12 [Example 13B] | > 3 | > 10 |  | 
8 | Nc1nc2ccc(C(=O)N3CCCC[C@@H]3c3ccc(F)cc3)cc2n2cncc12 [Example 14, (R)-(4-aminoimidazo[1,5-a]quinoxalin-8-yl)(2-(4-fluorophenyl)piperidin-1-yl)methanone] | 0.671 | > 10 |  | 
9 | Nc1nc2ccc(C(=O)N3CCCCC3c3ccc(OC(F)(F)F)cc3)cc2n2cncc12 (centres unmarked) [Example 22, (4-aminoimidazo[1,5-a]quinoxalin-8-yl)2-(4-(trifluoromethoxy)phenyl)piperidin-1-yl ketone] |  |  | 0.0452 | 8.13
10 | Nc1nc2cc(F)c(C(=O)N3CCC[C@H](c4ccc(C(F)(F)F)cc4)C3)cc2n2cncc12 [Example 13A] | 0.516 | > 10 |  | 
11 | Nc1nc2cc(F)c(C(=O)N3CC(c4ccc(C(F)(F)F)cn4)C3)cc2n2cncc12 [Example 10] | 0.795 | > 10 |  | 
12 | Nc1nc2cc(F)c(C(=O)N3CCC[C@@H]3c3ccc(C(F)(F)F)cc3)cc2n2cncc12 [Example 16, (R)-(4-amino-7-fluorimidazo[1,5-a]quinoxalin-8-yl)(2-(4-(trifluoromethyl)phenyl)pyrrolidin-1-yl)methanone] | 1.3 | > 10 |  | 
13 | Nc1nc2cc(Cl)c(C(=O)N3CCOCC3c3ccc(C(F)(F)F)cc3)cc2n2cncc12 (stereo in doubt) [Example 4B, (3S)-3-[4-(trifluoromethyl)phenyl]morpholin-4-yl 4-amino-7-chloro(10-hydroimidazo[1,5-a]quinoxalin-8-yl)one] | 2.78 | 6.52 |  | 
14 | (4-amino-7-fluimidazo[1,5-a]quinoxalin-8-yl)2-(1-methylpyr azolo[3,4-b]pyridin-5-yl)piperidin-1-methanone [Example 20] |  |  | 0.0833 | > 10
15 | Nc1nc2ccc(C(=O)N3CCCCC3c3ccc(Oc4ccc(F)cc4)cc3)cc2n2cncc12 (centres unmarked) [Example 19] | 0.472 | 6.38 |  | 

Continued, values first:

Row | IC50 ([1]; Homo sapiens, 192 h) [µM] | IC50 ([2]; Homo sapiens, 192 h) [µM] | IC50 [1] [µM] | IC50 [2] [µM] | Compound
16 | 0.0243 | 1.69 |  |  | Nc1nc2cc(F)c(C(=O)N3CCCC[C@@H]3c3ccc(F)cc3)cc2n2cncc12 [Example 7, (R)-(4-amino-7-fluoroimidazo[1,5-a]quinoxalin-8-yl)(2-(4-fluorophenyl)piperidin-1-yl)methanone]
17 | 0.458 | 4.18 |  |  | Nc1nc2cc(F)c(C(=O)N3CCCC(c4ccc(C(F)(F)F)cc4)C3)cc2n2cncc12 (centres unmarked) [Example 13, (4-amino-7-fluimidazo[1,5-a]quinoxalin-8-yl)(3-(4-(trifluoromethyl)phenyl)piperidin-1-yl)methanone]
18 | 0.0288 | 2.72 |  |  | Nc1nc2cc(Cl)c(C(=O)N3CCCC[C@@H]3c3ccc(F)cc3)cc2n2cncc12 [Example 6, (2R)-2-(4-fluorophenyl)piperidyl4-amino-7-chloro(10-hydroimidazo[1,5-a]quinoxalin-8-yl)one]
19 | 0.242 | > 10 |  |  | Nc1nc2ccc(C(=O)N3CCCCC3c3ccc4ccccc4n3)cc2n2cncc12 (centres unmarked) [Example 24]
20 | 0.0032 | 0.0911 |  |  | C[C@@H]1COC[C@H](c2ccc(C(F)(F)F)cc2)N1C(=O)c1cc2c(cc1F)nc(N)c1cncn12 [Example 12, (4-amino-7-fluorimidazo[1,5-a]quinoxalin-8-yl)((3R,5S)-3-methyl-5-(4-(trifluoromethyl)phenyl)morpholinyl)methanone]
21 | 0.396 | > 10 |  |  | Nc1nc2cc(F)c(C(=O)N3CCC(c4ccc(C(F)(F)F)cn4)C3)cc2n2cncc12 (centres unmarked) [Example 8, (4-amino-7-fluorimidazo[1,5-a]quinoxalin-8-yl)(3-(5-(trifluoromethyl)pyridin-2-yl)pyrrolidin-1-yl)methanone]
22 | 0.0065 | 0.512 |  |  | Nc1nc2cc(Cl)c(C(=O)N3CCOCC3c3ccc(C(F)(F)F)cc3)cc2n2cncc12 (stereo in doubt) [Example 4A, (3R)-3-[4-(trifluoromethyl)phenyl]morpholin-4-yl 4-amino-7-chloro(10-hydroimidazo[1,5-a]quinoxalin-8-yl)one]
